Source: ChEMBL document CHEMBL1142604, “Chamazulene carboxylic acid and matricin: a natural profen and its natural prodrug, identified through similarity to synthetic drug substances” (J Nat Prod, 2006)

What was measured:
Rattus norvegicus [1] = assay: Antiinflammatory activity in rat assessed as inhibition of carrageenan-induced right paw edema at 300 mg/kg after 1 hr; format: functional
Rattus norvegicus [2] = assay: Antiinflammatory activity in rat assessed as inhibition of carrageenan-induced right paw edema at 600 mg/kg after 1 hr; format: functional
Rattus norvegicus [3] = assay: Antiinflammatory activity in rat assessed as inhibition of carrageenan-induced right paw edema at 600 mg/kg after 3 hrs; format: functional
[4] = Dissociation constant, pKa of the compound; format: physicochemical
[5] = Lipophilicity, log D at pH 7.4; format: physicochemical; settings: buffer
[6] = target: T1, Prostaglandin G/H synthase 1 (Ovis aries) (UniProt P05979); assay: Inhibition of ram COX1 at 50 uM
T1 sequence (whole entry): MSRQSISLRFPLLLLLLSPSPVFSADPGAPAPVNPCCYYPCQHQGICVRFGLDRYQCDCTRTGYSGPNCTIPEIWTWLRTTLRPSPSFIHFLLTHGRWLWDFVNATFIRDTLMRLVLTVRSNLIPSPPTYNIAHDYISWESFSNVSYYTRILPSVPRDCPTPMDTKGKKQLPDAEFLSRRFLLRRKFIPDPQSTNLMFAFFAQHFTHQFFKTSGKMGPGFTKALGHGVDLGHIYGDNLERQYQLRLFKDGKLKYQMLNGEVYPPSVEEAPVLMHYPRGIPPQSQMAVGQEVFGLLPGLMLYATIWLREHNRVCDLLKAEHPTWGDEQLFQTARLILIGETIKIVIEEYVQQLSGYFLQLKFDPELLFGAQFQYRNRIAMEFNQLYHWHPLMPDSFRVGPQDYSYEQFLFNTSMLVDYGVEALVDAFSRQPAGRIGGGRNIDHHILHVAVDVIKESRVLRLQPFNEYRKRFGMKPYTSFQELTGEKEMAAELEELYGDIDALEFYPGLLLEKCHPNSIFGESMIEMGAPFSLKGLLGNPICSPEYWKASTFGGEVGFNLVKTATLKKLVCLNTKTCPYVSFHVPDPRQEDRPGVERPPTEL

Mus musculus [7] = assay: Antiinflammatory activity in mouse assessed as inhibition of phorbol […]-induced ear lobe edema; format: functional; design: scale not given: the % may be the effect or the level left
Mus musculus [8] = assay: Antiinflammatory activity in mouse assessed as inhibition of phorbol […]-induced ear lobe edema at 0.1 umol/ear after 6 hrs relative to control; format: functional
Mus musculus [9] = assay: Antiinflammatory activity in mouse assessed as inhibition of phorbol […]-induced ear lobe edema at 0.1 umol/ear after 24 hrs relative to control; format: functional
Mus musculus [10] = assay: Antiinflammatory activity in mouse assessed as inhibition of phorbol […]-induced ear lobe edema at 0.1 umol/ear after 48 hrs relative to control; format: functional
Mus musculus [11] = assay: Antiinflammatory activity in mouse assessed as inhibition of phorbol […]-induced ear lobe edema at 1 umol/ear after 6 hrs relative to control; format: functional
Mus musculus [12] = assay: Antiinflammatory activity in mouse assessed as inhibition of phorbol […]-induced ear lobe edema at 1 umol/ear after 24 hrs; format: functional
Mus musculus [13] = assay: Antiinflammatory activity in mouse assessed as inhibition of phorbol […]-induced ear lobe edema at 1 umol/ear after 48 hrs relative to control; format: functional
Homo sapiens [14] = species on record: Homo sapiens; assay: Plasma concentration in human by HPLC assay; format: ADME, organism-based; settings: in vivo
Homo sapiens [15] = assay: Plasma concentration in human at 500 mg, po after 75 to 90 mins; format: ADME, organism-based; settings: in vivo
[16] = Plasma concentration in human at 300 mg, po after 2.5 hrs; format: ADME, organism-based
[17] = Plasma concentration in human at 300 mg, po after 5 hrs; format: ADME, organism-based
[18] = Plasma concentration in human at 300 mg, po after 25 hrs; format: ADME, organism-based
[19] = Reduction in prostaglandin metabolite level in human urine at 500 mg, po; format: ADME; design: scale not given: the % may be the effect or the level left; settings: in vivo
[20] = Cmax in human at 500 mg, po; format: ADME, organism-based; design: dose 500 mg, route oral; settings: in vivo
[21] = Tmax in human at 500 mg, po; format: ADME, organism-based; settings: in vivo
Homo sapiens [22] = assay: Absorption coefficient, Ka in human at 500 mg, po; format: ADME, organism-based; settings: in vivo
[23] = Elimination constant, beta in human at 500 mg, po; format: ADME, organism-based; settings: in vivo
[24] = Elimination half life in human at 500 mg, po; format: ADME, organism-based; settings: in vivo, read-out: beta t1/2 (converted)
Homo sapiens [25] = assay: Volume of distribution in human at 500 mg, po; format: ADME, organism-based; settings: in vivo
[26] = AUC (0 to infinity) in human at 500 mg, po; format: ADME, organism-based; design: dose 500 mg, time infinity, route oral; settings: plasma
[27] = Metabolic stability in artificial gastric fluid assessed as transformation to chamazulene carboxylic acid after 60 mins; format: physicochemical; settings: simulated gi fluid, 1 h

`Cc1ccc([C@H](C)C(=O)OCOC(=O)C(C)(C)C)cc2c(C)ccc1-2` gave an inhibition in vivo at 300 mg/kg (Rattus norvegicus [1]) of 34.8%.
Work on `COC(=O)[C@@H](C)c1ccc(C)c2ccc(C)c-2c1` yielded an inhibition in vivo at 300 mg/kg (Rattus norvegicus [1]) of 22.8%.
With `CC(=O)Oc1ccccc1C(=O)O` [ASPIRIN] the inhibition in vivo at 600 mg/kg (Rattus norvegicus [2]) was 92.4% and the inhibition in vivo at 600 mg/kg (Rattus norvegicus [3]) was 77.3%.
For `Cc1ccc([C@H](C)C(=O)O)cc2c(C)ccc1-2` [CHAMAZULENE CARBOXYLIC ACID], the pKa [4] was 4.14, the logD [5] was 0.79 and the inhibition [6] was 17.4%. The Activity (Mus musculus [7]) was 23%, the “inhibition (INH)” value (Mus musculus [8]) was 12% and the “inhibition (INH)” value (Mus musculus [9]) was 19%. The “inhibition (INH)” value (Mus musculus [10]) was 35%, the “inhibition (INH)” value (Mus musculus [11]) was 38% and the “inhibition (INH)” value (Mus musculus [12]) was 14%. The “inhibition (INH)” value (Mus musculus [13]) was 24%, the inhibition in vivo at 300 mg/kg (Rattus norvegicus [1]) was 17.4% and the Cp (Homo sapiens [14]) was 100 ng/mL. It also gave a Cp (Homo sapiens [15]) of 900 ng/mL, a concentration at 2.5 h [16] of 1700 ng/mL and a concentration at 5 h [17] of 2400 ng/mL. The concentration at 25 h [18] was 2900 ng/mL, the Activity [19] was 40% and the Cmax [20] was 900 ng/mL. It also gave a Tmax [21] of 1.25 h, a Ka (Homo sapiens [22]) of 0.53 h⁻¹ and a k el [23] of 4.72e-05 s⁻¹. For the same molecule, the half-life [24] was 4 h, the Vd (Homo sapiens [25]) was 133 L and the AUC(0-inf) [26] was 14700 ng·h/mL.
Molecule `CC(C)Cc1ccc([C@H](C)C(=O)O)cc1` [DEXIBUPROFEN] has a logD [5] of 1.07.
Molecule `CC(C(=O)O)c1ccc(-c2ccccc2)c(F)c1` (stereo not drawn) [FLURBIPROFEN] has a pKa [4] of 4.6 and a logD [5] of 0.85.
In the case of `CC(=O)O[C@H]1CC(C)=C2C=C[C@@](C)(O)[C@@H]2[C@H]2OC(=O)[C@@H](C)[C@@H]21` [MATRICIN], the Stability [27] is reported as “Stable”.
In the case of `COc1ccc2cc([C@H](C)C(=O)O)ccc2c1` [NAPROXEN], the Activity (Mus musculus [7]) is reported as 59%, the “inhibition (INH)” value (Mus musculus [8]) is reported as 28% and the “inhibition (INH)” value (Mus musculus [9]) is reported as 21%. The “inhibition (INH)” value (Mus musculus [10]) was 18%, the “inhibition (INH)” value (Mus musculus [11]) was 45% and the “inhibition (INH)” value (Mus musculus [13]) was 25%.
